These results are taken from patent US10231979B2, “Modulation of inflammation using progesterone metabolites” (Indiana University Research and Technology Corporation, priority 2015, dated 2019).

Like-named read-outs stand apart in the source and are kept apart here.

Data set [1] deals with uterine horns from wild-type (WT) C57BL/6J female mice. The data set can be described thus: Spontaneous uterine contractility, isolated uterine horns in tissue organ bath. As to conditions: for IC50: spontaneous, dose-response 10^-9 to 10^-6 mol/L. Here is the method: (§1) FIGS. 2A & 2B are representative contraction tracings of uterine horns from wild-type (WT) C57BL/6J female mice. FIG. 2A: Uterine horns were isolated and suspended in a tissue organ bath at 0.5 g of tension. Once equilibrated, selected progestin treatments were added in successively increasing concentrations from 10^−9 to 10^−6 mol/L in 20-minute intervals to assess effect on spontaneous contractile activity (progesterone treatment, bottom panel). The contralateral horn from each mouse was treated with a matching ethanol vehicle (top panel). All contraction responses were measured and reported as the area under the contraction curve (AUC), normalized to the AUC of the spontaneous contraction pattern that preceded treatment. FIG. 2B: Treatment effect on oxytocin-induced contractility was assessed by exposing horns to selected progestin treatments (10^−6 mol/L), followed by increasing doses of oxytocin (Oxt) (1, 10, 50, and 100 nmol/L) in 10-minute intervals (bottom panel). The contralateral horn from each mouse was treated with a matching ethanol vehicle (top panel). Contraction responses were measured and reported as described above.
(§2) All progestins were solubilized in ethanol and then diluted in phosphate-buffered saline to the desired molar concentration. […] The concentration of ethanol decreased parallel to the progestin dose in order to minimize the effect of the solvent on uterine contractility.
(§3) Virgin nonpregnant wild-type C57BL/6J female mice (Jackson Labs, Bar Harbor, Me.) were obtained at 10 to 12 weeks of age and fed a standard diet. Mice were euthanized by an IACUC-approved protocol, and each of the 2 uterine horns were removed. A 1 cm×0.5 cm segment of the uterine horn was suspended using 4-0 silk suture between a stainless steel wire hook connected to a Radnoti force displacement transducer (Radnoti LLC, Monrovia, Calif.) and a glass hook inside an organ bath that served as an anchor. The bath was filled with modified Krebs buffer (118 mmol/L NaCl, […], 1.2 mmol/L MgSO4, 1.2 mmol/L KH2PO4, 2.5 mmol/L CaCl2, 25 mmol/L NaHCO3, and 11 mmol/L glucose, pH 7.4), maintained at 37° C., and constantly bubbled with a premixed gas consisting of 20% O2, 5% CO2, and balance N2. Uterine horns were equilibrated at 0.5 g of tension for approximately 30 minutes until a spontaneous contraction pattern was established.
A total of 60 mice were utilized to assess the effect of the selected treatments on uterine contractility, 30 in the spontaneous contraction group and 30 in the oxytocin-induced group. Six mice were in each progestin treatment group during both spontaneous and oxytocin-induced contractility arms of the study. To determine the nongenomic (acute) effect of the progestin treatments on spontaneous uterine contractility, a segment of uterine horn from each mouse was exposed to a single progestin (progesterone, 17-OHPC, 2α-OHP, 6β-OHP, or 16αOHP), while a segment of the contralateral horn was exposed to a matching dose of ethanol vehicle. After a spontaneous contraction pattern was achieved, the progestin treatment was added to the tissue organ bath in successively increasing concentrations from 10^−9 to 10^−6 mol/L in 20-minute intervals. At the end of the treatments, the tissue was washed in modified Krebs buffer and then exposed to KCl (60 mmol/L) to elicit a tetanic response and confirm tissue viability.
Uterine contraction responses were recorded using LabChart Pro (ADInstruments, Colorado Springs, Colo.) software as the force generated with time (g×min). Baseline uterine contractility was calculated as the area under the curve (AUC) for a 10-minute period of spontaneous contractions. The AUC of the uterine contractile response to each treatment (progestin or oxytocin) was determined and expressed as a percentage of the baseline AUC observed during spontaneous contraction. […]

Data set [2] has the same test system. The data set is described as follows: Oxytocin-induced uterine contractility after progestin pretreatment, isolated uterine horns in tissue organ bath. As to conditions: for EC50: oxytocin-induced dose-response (1-100 nmol/L oxytocin) after progestin pretreatment 10^-6 mol/L. On the procedure:
as §1, §2, §3
To determine the nongenomic effect of progestin treatments on oxytocin-induced uterine contractility, the uterine horns were pretreated with a single progestin at 10^−6 mol/L for 10 minutes after a spontaneous contractile pattern was established. The contralateral horn from the same mouse was treated with ethanol vehicle at a matching concentration. The uterine horns were subsequently exposed to increasing concentrations of oxytocin (1, 10, 50, and 100 nmol/L) in 10-minute intervals. At the end of the oxytocin treatments, the tissue was washed and then exposed to KCl (60 mmol/L) to elicit a tetanic response and confirm tissue viability.
Uterine contraction responses were recorded using LabChart Pro (ADInstruments, Colorado Springs, Colo.) software as the force generated with time (g×min). Baseline uterine contractility was calculated as the area under the curve (AUC) for a 10-minute period of spontaneous contractions. The AUC of the uterine contractile response to each treatment (progestin or oxytocin) was determined and expressed as a percentage of the baseline AUC observed during spontaneous contraction. […] To account for repeated measurements for individual muscle strips at increasing treatment doses, a repeated measures 2-way analysis of variance model was used to compare the dose-response curves. Each dose-response curve was fit by nonlinear regression and compared using an extra sum of squares F test. The mean max-fit response was compared between each progestin and vehicle control to determine maximum treatment efficacy. […]

In data set [3] the test system is primary uterine smooth muscle cells (UtSMC). The data set is described as follows: IL-6 production in UtSMC stimulated with LPS. As to conditions: UtSMC pre-treated, then LPS. Format: cell-based. Here is the method: In this Example, the effect of progesterone metabolites 16αOHP and 6β-OHP on inflammation in primary uterine smooth muscle cells (UtSMC) was analyzed.
UtSMC were cultured in the presence of DMSO and one of the following: (1) progesterone; (2) […]; (3) 6β-OHP; and (4) 16αOHP. Lipopolysaccharide (LPS) was then added to the culture to stimulate an immune inflammatory reaction. Experiments were performed in triplicate.

Data set [4] has the same test system. The data set is described as follows: IL-6 production in UtSMC stimulated with TNF-α. Format: cell-based. From the text: FIGS. 5A & 5B are graphs depicting the effect of progesterone metabolites 16αOHP and 6β-OHP on inflammation in primary uterine smooth muscle cells (UtSMC).
Data set [5] deals with THP-1 monocyte cells. The data set can be described thus: Flow cytometry of monocyte-derived macrophage population (PMA differentiation). Format: cell-based. Particulars: THP-1 pre-treated 24 hours, then PMA. On the procedure: FIGS. 6A-6C depict flow cytometry of a monocyte-derived macrophage population pre-treated with progesterone metabolites. THP-1 monocyte cells were pre-treated with progesterone metabolites 16αOHP and 6β-OHP for 24 hours, then stimulated to differentiate to macrophages by exposure to PMA.
THP-1 monocyte cells were pre-treated with progesterone metabolites 16αOHP and 6β-OHP for 24 hours, then stimulated to differentiate to macrophages by exposure to phorbol 12-myristate 13-acetate (PMA).
A general note: A flow cytometer gives signals particle by particle.

Data set [6] deals with THP-1 monocytes. The data set can be described thus: IL-6 production in THP-1 monocytes stimulated with LPS. Format: cell-based. Particulars: THP-1 monocytes pretreated, then LPS; versus positive control. On the procedure:
FIG. 9 is a graph depicting the effect of progesterone and progesterone metabolites (16αOHP and 6β-OHP) on inflammation in THP-1 monocytes stimulated with LPS.
In this Example, the effect of progesterone and progesterone metabolites (16αOHP and 6β-OHP) on inflammation in THP-1 monocytes stimulated with LPS was analyzed.

Data set [7] has as its system CYP3A.
[8] abbreviates: maximal oxytocin dose (100 nmol/L).
Where [9] appears, read: oxytocin-induced, progestin pretreatment 10^-6 mol/L, maximal oxytocin dose (100 nmol/L).

Turning to `CC(=O)[C@H]1CC[C@H]2[C@@H]3C[C@@H](O)C4=CC(=O)CC[C@]4(C)[C@H]3CC[C@]12C` [6β-OHP, 4-pregnen-6β-ol-3,20-dione], the “Spontaneous contractile force compared with the vehicle control (in words)” value in data set [1] (maximal treatment dose) is listed as “No significant difference”. The “Spontaneous uterine contraction frequency compared to vehicle control (in words)” value in data set [1] (maximal treatment dose) was “not significantly decreased”. Moreover, the “Contractile Frequency/10 min (% of baseline), Drug” value in data set [1] (spontaneous contractility, maximal treatment dose) is 46.2% of baseline; in data set [2] (setting [9]), 196.1% of baseline; in data set [2] (oxytocin-induced, progestin pretreatment 10^-6 mol/L, maximal oxytocin dose (100 nmol/L), listed as 6β-hydroxyprogesterone), 196 % of baseline. Also, the “Contractile Force (% of baseline), Drug” value was 45% of baseline in data set [1] (spontaneous contractility, maximal treatment dose, AUC as % of baseline AUC) and 267.6% of baseline in data set [2] (setting [9]). The results for the IC50 in data set [1] (read-out: Contractile Force IC50) and in data set [1] (read-out: Contractile Frequency IC50) were 0.48 nM and 4.1 nM, respectively. Further, the “Effect on oxytocin-induced uterine contractility (in words)” value in data set [2] was “increase”. The “Oxytocin-induced contractile force compared to vehicle control (in words)” value in data set [2] (setting [8]) was “no differences”. In data set [2] (setting [8]), the “Oxytocin-induced contraction frequency compared to control (in words)” value is listed as “decreased significantly”. Further, the EC50 (in general, the concentration at which the effect is half-maximal) in data set [2] (read-out: Contractile Force EC50) turned out to be 20.9 nM; in data set [2] (read-out: Contractile Frequency EC50), 12.8 nM. Also, in data set [3] (LPS positive control 121.7 pg/mL), the IL-6 turned out to be 125.4 pg/mL. Besides, in data set [3] (relative to DMSO+LPS positive control), the “IL-6, % of positive control” value came to 102%. Further, the “IL-6 production (in words)” value in data set [4] is given as “decreased IL-6 production”. In addition, the “Macrophage population/phenotype compared to DMSO treated control (in words)” value in data set [5] is recorded as “decrease in the macrophage population/phenotype”. Moreover, in data set [5] (DMSO control 77%), the “Macrophages, % of the total population” value is on record as 52%. Besides, in data set [6], the “Inflammatory response (IL-6 production) (in words)” value is listed as “significantly decreased IL-6 production”. For the same compound, the “Production of metabolite in human liver microsomes (in words)” value in data set [7] was “favored”.
